# Laboratory results as given in article PMC3335078, “Length and Amino Acid Sequence of Peptides Substituted for the 5-HT3A Receptor M3M4 Loop May Affect Channel Expression and Desensitization” (PLoS ONE, 2012).
# Assays:
# Assay type in all cases: cell-based
# [1] = molecular target: T1, 5-HT3A-A5 (M3M4 loop replaced by five alanines) (Mus musculus, UniProt P23979); test: Two-electrode voltage clamp, oocytes expressing 5-HT3A-A5
# T1 construct: expressed in transfected cells; host or cells: Xenopus laevis oocytes injected with mRNA
# T1 sequence (P23979 with tags, fused parts or gaps isoform P23979-2 limits assumed): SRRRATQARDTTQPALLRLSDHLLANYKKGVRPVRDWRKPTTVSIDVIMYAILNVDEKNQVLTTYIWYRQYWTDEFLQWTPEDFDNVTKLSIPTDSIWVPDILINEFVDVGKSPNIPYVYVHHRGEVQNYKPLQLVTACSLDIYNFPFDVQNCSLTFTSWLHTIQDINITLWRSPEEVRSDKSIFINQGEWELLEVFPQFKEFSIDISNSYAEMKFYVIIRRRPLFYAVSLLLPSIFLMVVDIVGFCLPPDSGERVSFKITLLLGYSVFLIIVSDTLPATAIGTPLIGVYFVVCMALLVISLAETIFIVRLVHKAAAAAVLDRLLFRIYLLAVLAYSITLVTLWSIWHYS
# Excerpt: (§1) The mouse 5-HT3A cDNA with an N-terminal V5 epitope tag was cloned into the pXOON vector as previously described, and is referred to in this paper as “wild-type” (WT). The starting construct for all of the M3M4 loop replacement constructs used in this work was the 5-HT3A-ΔM3M4 construct formed by splicing the cytoplasmic end of M3 (M3-LVHK/QDLQRP…) to the cytoplasmic end of M4 (…WLRVGY/VLDRLL-M4). The splice was made at the site of the “/” to yield the sequence M3-LVHK/VLDRLL-M4 [34]. This removed 115 residues predicted to form the M3M4 loop.
# (§2) The construction of the 5-HT3A-glvM3M4 chimera with the 5-HT3A M3M4 loop replaced by the GLIC heptapeptide M3M4 loop (SQPARAA) was described previously. Point mutations, alanine and Gly-Ser-Ala insertions into the 5-HT3A-ΔM3M4 construct were generated with the Quikchange site directed mutagenesis procedure (Stratagene, La Jolla, CA). The entire coding region of all mutant constructs was verified by DNA sequencing (Albert Einstein College of Medicine DNA Sequencing Facility). The pXOON plasmid was linearized using NheI and capped mRNA prepared with T7 RNA polymerase (mMessage mMachine, Ambion, Austin, TX).
# (§3) Use of Xenopus laevis in this study was carried out in strict accordance with the recommendations in the Guide for the Care and Use of Laboratory Animals of the National Institutes of Health. The protocol was approved by the Albert Einstein College of Medicine Animal Care and Use Committee (Protocol Number: 20081201). All surgery was performed under tricaine anesthesia, and all efforts were made to minimize suffering. Oocyctes were harvested from Xenopus (Nasco Science, Fort Atkinson, WI) anesthetized with 0.15% tricaine. […]
# (§4) Currents were recorded under two-electrode voltage clamp from oocytes 2–5 d post-injection as described previously. […]
# (§5) Desensitization rates were determined by fitting a single exponential decay function to the current data with Prism 4 software (GraphPad Software). Significant differences compared with wild-type were determined by a one-way ANOVA (p<0.05) using Dunnett's multiple comparison post-hoc test (p<0.05). […]
# [2] = molecular target: T2, 5-HT3A-A4 (M3M4 loop replaced by four alanines) (Mus musculus, UniProt P23979); test: Two-electrode voltage clamp, oocytes expressing 5-HT3A-A4
# T2 construct: expressed in transfected cells; host or cells: Xenopus laevis oocytes injected with mRNA
# T2 sequence (P23979 with tags, fused parts or gaps isoform P23979-2 limits assumed): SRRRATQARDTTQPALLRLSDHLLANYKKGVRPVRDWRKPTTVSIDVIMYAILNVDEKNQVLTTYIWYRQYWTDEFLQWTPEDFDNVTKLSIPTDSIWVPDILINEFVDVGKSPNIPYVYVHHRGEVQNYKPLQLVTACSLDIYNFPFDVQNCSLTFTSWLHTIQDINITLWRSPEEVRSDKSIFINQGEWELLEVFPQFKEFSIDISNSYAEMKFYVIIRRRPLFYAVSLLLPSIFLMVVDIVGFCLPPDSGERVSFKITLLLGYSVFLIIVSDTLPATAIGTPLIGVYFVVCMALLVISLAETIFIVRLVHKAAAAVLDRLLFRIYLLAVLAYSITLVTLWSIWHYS
# Excerpt: as §1, §2, §3, §4, §5
# [3] = molecular target: T3, 5-HT3A-A2 (M3M4 loop replaced by two alanines) (Mus musculus, UniProt P23979, DELINS338-452AA); test: Two-electrode voltage clamp, oocytes expressing 5-HT3A-A2
# T3 construct: expressed in transfected cells; host or cells: Xenopus laevis oocytes injected with mRNA
# T3 sequence (P23979 with tags, fused parts or gaps isoform P23979-2 DELINS338-452AA limits assumed): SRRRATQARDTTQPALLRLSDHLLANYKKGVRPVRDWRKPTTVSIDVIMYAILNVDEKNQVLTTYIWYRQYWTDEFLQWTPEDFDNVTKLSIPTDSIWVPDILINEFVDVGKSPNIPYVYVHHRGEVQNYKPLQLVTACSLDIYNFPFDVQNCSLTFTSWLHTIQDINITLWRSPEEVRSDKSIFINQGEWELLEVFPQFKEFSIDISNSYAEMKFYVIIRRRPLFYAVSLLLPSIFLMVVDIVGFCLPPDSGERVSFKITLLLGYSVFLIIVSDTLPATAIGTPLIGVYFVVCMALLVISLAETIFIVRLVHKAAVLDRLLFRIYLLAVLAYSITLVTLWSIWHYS
# Excerpt: as §1, §2
# Use of Xenopus laevis in this study was carried out in strict accordance with the recommendations in the Guide for the Care and Use of Laboratory Animals of the National Institutes of Health. The protocol was approved by the Albert Einstein College of Medicine Animal Care and Use Committee (Protocol Number: 20081201). All surgery was performed under tricaine anesthesia, and all efforts were made to minimize suffering. Oocyctes were harvested from Xenopus (Nasco Science, Fort Atkinson, WI) anesthetized with 0.15% tricaine. Oocyctes were defolliculated by incubation in 2 mg ml^−1 Type 1A collagenase (Sigma-Aldrich, St. Louis, MO) in OR2 (85 mM NaCl, 2 mM KCl, 1 mM MgCl2, and 5 mM HEPES; pH adjusted to 7.5 with NaOH) for a 60 or 75 min. Oocytes were washed in OR2 and stored at 16°C in SOS medium: 100 mM NaCl, 2 mM KCl, 1 mM MgCl2, 1.8 mM CaCl2 5 mM HEPES, pH 7.5 with 100 IU ml^−1 penicillin, 100 µg ml^−1 streptomycin, and 250 ng ml^−1 amphotericin B (Invitrogen, Carlsbad, CA) and 5% horse serum (Sigma-Aldrich). 24 hrs following isolation, oocyctes were injected with 23 nl (2.3 ng) of mRNA and were kept in SOS media for 2–5 d at 16°C.
# Currents were recorded under two-electrode voltage clamp from oocytes 2–5 d post-injection as described previously. […] The perfusion chamber volume was 200 µl. […]
# as §5
# [4] = 10 µM 5-HT, Xenopus oocytes, -60 mV
structure (smiles),measurement,setting,value
"NCCc1c[nH]c2ccc(O)cc12 [5-HT, 5-hydroxytryptamine]",10–90% Activation rise time,[1]; 10 µM 5-HT,797 ± 108 ms
same,Imax (peak current),[1]; [4],2500±500 nA
same,Desensitization time constant τ,"[1]; prolonged 10 µM 5-HT, may be limited by solution exchange",6 ± 1 s
same,10–90% Activation rise time,[2]; 10 µM 5-HT,487 ± 25 ms
same,Imax (peak current),[2]; [4],7100±400 nA
same,Desensitization time constant τ,[2]; prolonged 10 µM 5-HT,56 ± 9 s
same,nH (Hill coefficient),[3],2.0±0.3
same,10–90% Activation rise time,[3]; 10 µM 5-HT,617 ± 32 ms
same,Imax (peak current),[3]; [4],6900±260 nA
same,Desensitization time constant τ,[3]; prolonged 10 µM 5-HT,43 ± 4 s
